Experimental data as given in patent US20120225092A1, “COSMETIC USE OF SKIN CELL AUTOPHAGY ACTIVATORS” (SOCIETE INDUSTRIELLE LIMOUSINE D'APPLICATION BIOLOGIQUE …, priority 2008, published 2012).
Read-outs that look alike come from different tables or passages of the source.

How the values were obtained:
MAP-LC3 [1] = conditions: relative to control without stress
Description: This study has as its objective to compare the autophagy level of young cells (from donors with a mean age of 26 years) and aged cells (from donors with a mean age of 70 years) that are subjected to the same oxidative and nutritive stresses.
The evaluation of the autophagy level was considered by the analysis of the expression of the protein MAP-LC3 by Western Blott.
The protocol that is put into place is as follows: • Cultures of so-called young or aged cells for 24 hours in the complete culture medium, • Removal of the complete culture medium, replacement with the non-nutritive culture medium that contains the oxidizing agent H2O2 for 3 hours at different doses, • Removal of the oxidizing agent, replacement by the complete culture medium without an oxidizing agent, • Evaluation of the expression of MAP-LC3 after cellular recovery.

MAP-LC3 [2] = tested on: MAP-LC3
Description: (§1) The protocol is as follows: • Cultivation of cells for 24 hours in a complete culture medium. • Removal of the culture medium and replacement with the non-nutritive culture medium that contains the oxidizing agent H2O2 for 3 hours (different doses of H2O2—125 μM and/or 250 μM—have been tested). • Removal of the oxidizing agent and the non-nutritive culture medium, replacement by a complete culture medium without an oxidizing agent. • Evaluation of the expression of MAP-LC3, the phosphorylated protein p53, or the protein DRAM after cellular recovery. Several recovery times have been selected (0.5 hour, 1 hour, 1.5 hours, or 2 hours of recovery).
It is possible to evaluate the autophagy of stressed cutaneous cells by visualizing the expression of the protein MAP-LC3 by immunofluorescent marking.
The evaluation of the expression MAP-LC3 was analyzed under these moderate stress conditions (125 μM and 250 μM of hydrogen peroxide H2O2) on HaCaT keratinocyte cultures and on normal human keratinocytes. With the immunomarking results being qualitative, several levels of expression of ATG5-12 were defined: […]

protein DRAM = conditions: H2O2 125 μM, relative to control without stress
Description: as §1
It is also possible to evaluate the autophagy of stressed cutaneous cells by visualizing the expression of the protein DRAM by Western Blott.
(§2) The evaluation of the expression of DRAM was therefore analyzed under these moderate stress conditions with 125 μM of H2O2 on HaCaT keratinocyte cultures and on normal human keratinocytes. The expression of DRAM is presented in the table below in percentage relative to the control (without stress).

[3] = tested on: phosphorylated protein p53; conditions: H2O2 125 μM, relative to control without stress
Description: as §1
It is also possible to evaluate the autophagy of stressed cutaneous cells by visualizing the expression of the phosphorylated protein p53 by Western Blott.
as §2, with “the phosphorylated protein p53 has” for “DRAM was”, “therefore been” for “therefore”, “phosphorylated p53” for “DRAM”

`OO` [H2O2, hydrogen peroxide] was tested, and the “Expression of MAP-LC3 On Aged Cells” value (MAP-LC3 [1]; H2O2 125 μM for 3 hours, aged cells (donors mean age 70 years)) was 138%, the “Expression of MAP-LC3 On Young Cells” value (MAP-LC3 [1]; H2O2 125 μM for 3 hours, young cells (donors mean age 26 years)) was 172% and the “Expression of MAP-LC3 On Aged Cells” value (MAP-LC3 [1]; H2O2 250 μM for 3 hours, aged cells) was 187%. For the same molecule, the “Expression of MAP-LC3 On Young Cells” value (MAP-LC3 [1]; H2O2 250 μM for 3 hours, young cells) was 322%, the “Expression of MAP-LC3 On Aged Cells” value (MAP-LC3 [1]; H2O2 400 μM for 3 hours, aged cells) was 135% and the “Expression of MAP-LC3 On Young Cells” value (MAP-LC3 [1]; H2O2 400 μM for 3 hours, young cells) was 168%. For the same molecule, the “Expression of MAP-LC3 On Aged Cells” value (MAP-LC3 [1]; H2O2 600 μM for 3 hours, aged cells) was 96%, the “Expression of MAP-LC3 On Young Cells” value (MAP-LC3 [1]; H2O2 600 μM for 3 hours, young cells) was 143% and the “Expression of MAP-LC3 On Aged Cells” value (MAP-LC3 [1]; H2O2 1000 μM for 3 hours, aged cells) was 92%. For the same molecule, the “Expression of MAP-LC3 On Young Cells” value (MAP-LC3 [1]; H2O2 1000 μM for 3 hours, young cells) was 117%, the “Expression of MAP-LC3” value (MAP-LC3 [2]; H2O2 125 μM for 3 hours in non-nutritive medium, recovery time 0.5 hour, HaCaT and normal human keratinocytes) was “++” and the “Expression of MAP-LC3” value (MAP-LC3 [2]; H2O2 125 μM for 3 hours in non-nutritive medium, recovery time 1 hour) was “++”. For the same molecule, the “Expression of MAP-LC3” value (MAP-LC3 [2]; H2O2 125 μM for 3 hours in non-nutritive medium, recovery time 1.5 hours) was “+++”, the “Expression of MAP-LC3” value (MAP-LC3 [2]; H2O2 125 μM for 3 hours in non-nutritive medium, recovery time 2 hours) was “++” and the “Expression of MAP-LC3” value (MAP-LC3 [2]; H2O2 250 μM for 3 hours in non-nutritive medium, recovery time 0.5 hour) was “++”. For the same molecule, the “Expression of MAP-LC3” value (MAP-LC3 [2]; H2O2 250 μM for 3 hours in non-nutritive medium, recovery time 1 hour) was “+++”, the “Expression of MAP-LC3” value (MAP-LC3 [2]; H2O2 250 μM for 3 hours in non-nutritive medium, recovery time 1.5 hours) was “++” and the “Expression of MAP-LC3” value (MAP-LC3 [2]; H2O2 250 μM for 3 hours in non-nutritive medium, recovery time 2 hours) was “+”. For the same molecule, the “Expression of DRAM (%)” value (protein DRAM; recovery time 0.5 hour) was 120%, the “Expression of DRAM (%)” value (protein DRAM; recovery time 1 hour) was 180% and the “Expression of DRAM (%)” value (protein DRAM; recovery time 1.5 hours) was 390%. For the same molecule, the “Expression of DRAM (%)” value (protein DRAM; recovery time 2 hours) was 200%, the “Phosphorylated Expression p53 (%)” value ([3]; recovery time 0.5 hour) was 221% and the “Phosphorylated Expression p53 (%)” value ([3]; recovery time 1 hour) was 140%. For the same molecule, the “Phosphorylated Expression p53 (%)” value ([3]; recovery time 2 hours) was 128%.
